Laboratory results as given in patent US10856562B2, “Flavor composition and edible compositions containing same” (MARS, INCORPORATED, priority 2013, dated 2020).
Square brackets hold non-standard residues; d marks the D form. Ends that are not written are not given here. pGlu = O=C1CC[C@@H](C(=O)O)N1

Experiments:
[1] = Salty taste of peanut butter with added peptide; type: in vivo; conditions: no salt reduction, 267 ppb peptide
Protocol: All Ingredients were added into the mixing bowl and milled on the Retsch mill (model RM200) for a total of 30 minutes for two 15 minute intervals. After 15 minutes, the walls of the bowl were scraped with a spatula and then, milling was resumed.
Three batches of peanut butter were made: a control with 100% NaCl (0.05 g), a sample with 100% NaCl (0.05 g) and 267 ppb pGlu-Val-Leu, and a sample with 50% NaCl reduction (0.025 g) and with 267 ppb pGlu-Val-Leu.
A 1000 ppm stock of pGlu-Val-Leu in salt was made to be added to the peanut butter.

panel of trained tasters = assay: Saltiness of 25% sodium-reduced food products with peptides, panel of trained tasters; type: in vivo, human
Protocol: Food product compositions were prepared by admixing flavor composition peptide(s) of the present application with food compositions, wherein the level of sodium (NaCl) in the food product compositions was reduced. The level of sodium was reduced by 25%, 50% or 75% compared to food products compositions that were not admixed with flavor composition peptides. The food product compositions comprising the flavor composition peptides were tasted by a panel of trained tasters and the level of saltiness was compared to the control food products.
The peptides pGlu-Val-Leu (identified as “SE-13”), pGlu-Val-Cys (identified as “UE-30”), pGlu-Val-Val (identified as “SE-17”) and pGlu-Cys-Cys (identified as “FE-37”) were tested in cottage cheese, tortilla chips, ketchup, cream of mushroom soup, alfredo sauce, sausage, mixed nuts, peanuts, soy sauce and chicken broth. The level of sodium in the test food products comprising the peptides was reduced by 25% compared to the control food products.

panelists = assay: Consensus attribute scores of flavor enhancers in Uncle Ben's Garden Vegetable Ready rice; type: in vivo, human; set-up: key to Cooked White Rice / Vegetable Oil / Vegetable Complex / Cooked Green Vegetable / Cooked Corn / Sweet (BASIC TASTES) / Salt (BASIC TASTES) / Mouthdrying (Texture) / Residual Mouthcoating (Texture) / Total Aromatics / Bitter (BASIC TASTES): 15-point scale, 0 = none, 15 = very strong; conditions: for Bitter (BASIC TASTES) / Black Pepper / Cooked Corn / Cooked Green Vegetable / Cooked White Rice / Dehydrated onion/garlic / HVP/Brothy / Mouthdrying (Texture) / Residual Mouthcoating (Texture) / Salt (BASIC TASTES) / Salt Burn (Chemical Feeling Factors) / Sweet (BASIC TASTES) / Total Aromatics / Umami (Chemical Feeling Factors) / Vegetable Complex / Vegetable Oil: rice
Protocol: Descriptive attributes (e.g., taste, flavor and chemical feeling factors) of three use levels of pGlu-Cys (FE-35), pGlu-Cys-Gly (FE-36), pGlu-Cys-Cys (FE-37), pGlu-Cys-Val (FE-38) and pGlu-Val-Cys (UE-30) flavor composition peptides were determined. The three use levels were as follows: 1.0 ppb, 10.0 ppb and 100.0 ppb.
Data was collected for the attributes of the product in-mouth for the use levels according to the following protocol: • The samples were analyzed for flavor by six to nine members of a panel, trained and experienced in flavor evaluation using the Spectrum™ method. Samples were evaluated across multiple panel sessions. • The strength of each attribute was rated on a 15-point scale, where 0=none and 15=very strong. • This scale incorporates the ability to use tenths of a point and therefore has the potential of 150 scale differentiations. • The scale may be expanded beyond 15 points to include extreme ratings if necessary.
Preparation of Rice Samples • Each flavor enhancer was tested in Uncle Ben's Garden Vegetable Ready rice matrix at 3 different concentrations: 1 ppb, 10 ppb and 100 ppb. A total of 15 points with flavor enhancers were prepared for sensory evaluation. Additionally, 15 control samples were prepared. Each point had 2 samples (test and control) and was made from one pouch of rice. • Directions to prepare the solutions: • The 15 ready- to eat pouches were microwaved according to the procedure found on the back of the pouch: (1) squeeze pouch to separate rice, (2) tear two inches to vent, (3) heat on High for 90 seconds and (4) remove from microwave using COOL TOUCH area on untorn side. • From each pouch 124.75 g (test sample) and 99.8 g (control) were weighed out. The test sample had the flavor enhancer and/or salt. The control sample only had salt added. • The flavor enhancer and/or salt (non-iodized salt) were weighed in a soufflé cup. The weighed amount of flavor enhancer and/or salt was added to the sub-sampled rice. The rice was stirred and mixed to evenly distribute the salt added. • Some rice was placed back into the soufflé cup, sealed, and the cup was shook to get the flavor enhancer and/or salt that may have been stuck on the walls of the soufflé cup. After shaking the soufflé cup, the rice was added back to the original sub-sampled rice and stirred/mixed again. • Each sample (test and control) was microwaved for another 30 seconds (or until warm) to ensure that the salts/compounds were going completely into the solutions. • All samples (test and control) were tasted at the same temperature. • Each test sample had 0.2% NaCl added and flavor enhancers at the specified concentrations.
A summary of the concentrations of NaCl and flavor composition peptides in the rice samples is described in table 23. The first value of each cell represents a single sample amount of an ingredient in milligrams, and the second number in parenthesis is a doubling of the ingredient (in grams) for use in a doubled size sample.
The panelists evaluated each sample for the attributes described by table 25.

[pGlu]-Val-Leu [SE-13]
Salty taste compared to control with 100% NaCl [1]: saltier than the control | Saltiness compared to control (panel of trained tasters; Chicken Broth, control 860 mg, test 645 mg Na, 10 ppb each, n=4): Test samples saltier than | Saltiness/flavor compared to control (panel of trained tasters; Cottage Cheese, control 350 mg, test 262 mg Na, 10 ppb each, n=4): Test samples notably less | Saltiness compared to SE-17 (panel of trained tasters; Ketchup, test 120 mg Na): SE-13 more salty than | Saltiness compared to control (panel of trained tasters; Tortilla Chips, control 103 mg, test 77 mg Na, 10 ppb each, n=4): Test samples saltier than

[pGlu]-Cys-Gly [FE-36]
Salt burn in rice (panelists; 100 ppb): low level of salt burn | Bitter in rice (panelists; all samples (1, 10, 100 ppb)): slightly bitter | Cooked green vegetable in rice compared to the Control (panelists; all samples (1, 10, 100 ppb)): low level of cooked green vegetable | Mouthdrying in rice, not seen in the Control (panelists; all samples (1, 10, 100 ppb)): have mouthdrying | Umami feeling factor in rice compared to the Control (panelists; all samples (1, 10, 100 ppb)): higher in umami | Bitter (BASIC TASTES) (panelists; 1.0 ppb (5 ppm)): 0.5 | Black Pepper (panelists; 1.0 ppb (5 ppm)): 1.0 | Cooked Corn (panelists; 1.0 ppb (5 ppm)): 1.0 | Cooked Green Vegetable (panelists; 1.0 ppb (5 ppm)): 0.5 | Cooked White Rice (panelists; 1.0 ppb (5 ppm)): 3.0 | Dehydrated onion/garlic (panelists; 1.0 ppb (5 ppm)): 1.0 | HVP/Brothy (panelists; 1.0 ppb (5 ppm)): 1.0 | Mouthdrying (Texture) (panelists; 1.0 ppb (5 ppm)): 1.0 | Residual Mouthcoating (Texture) (panelists; 1.0 ppb (5 ppm)): 1.0 | Salt (BASIC TASTES) (panelists; 1.0 ppb (5 ppm)): 11.5 | Salt Burn (Chemical Feeling Factors) (panelists; 1.0 ppb (5 ppm)): 0.0 | Sweet (BASIC TASTES) (panelists; 1.0 ppb (5 ppm)): 3.5 | Total Aromatics (panelists; 1.0 ppb (5 ppm)): 6.0 | Umami (Chemical Feeling Factors) (panelists; 1.0 ppb (5 ppm)): 1.5 | Vegetable Complex (panelists; 1.0 ppb (5 ppm)): 1.5 | Vegetable Oil (panelists; 1.0 ppb (5 ppm)): 0.8 | Bitter (BASIC TASTES) (panelists; 10.0 ppb (50 ppm)): 1.0 | Black Pepper (panelists; 10.0 ppb (50 ppm)): 1.0 | Cooked Corn (panelists; 10.0 ppb (50 ppm)): 1.0 | Cooked Green Vegetable (panelists; 10.0 ppb (50 ppm)): 1.0 | Cooked White Rice (panelists; 10.0 ppb (50 ppm)): 3.0 | Dehydrated onion/garlic (panelists; 10.0 ppb (50 ppm)): 1.5 | HVP/Brothy (panelists; 10.0 ppb (50 ppm)): 1.0 | Mouthdrying (Texture) (panelists; 10.0 ppb (50 ppm)): 1.5 | Residual Mouthcoating (Texture) (panelists; 10.0 ppb (50 ppm)): 1.0 | Salt (BASIC TASTES) (panelists; 10.0 ppb (50 ppm)): 13.5 | Salt Burn (Chemical Feeling Factors) (panelists; 10.0 ppb (50 ppm)): 0.0 | Sweet (BASIC TASTES) (panelists; 10.0 ppb (50 ppm)): 3.5 | Total Aromatics (panelists; 10.0 ppb (50 ppm)): 6.5 | Umami (Chemical Feeling Factors) (panelists; 10.0 ppb (50 ppm)): 3.0 | Vegetable Complex (panelists; 10.0 ppb (50 ppm)): 2.0 | Vegetable Oil (panelists; 10.0 ppb (50 ppm)): 0.8 | Bitter (BASIC TASTES) (panelists; 100 ppb (50 ppm)): 0.5 | Black Pepper (panelists; 100 ppb (50 ppm)): 0.8 | Cooked Corn (panelists; 100 ppb (50 ppm)): 0.8 | Cooked Green Vegetable (panelists; 100 ppb (50 ppm)): 0.8 | Cooked White Rice (panelists; 100 ppb (50 ppm)): 3.0 | Dehydrated onion/garlic (panelists; 100 ppb (50 ppm)): 1.3 | HVP/Brothy (panelists; 100 ppb (50 ppm)): 1.0 | Mouthdrying (Texture) (panelists; 100 ppb (50 ppm)): 2.0 | Residual Mouthcoating (Texture) (panelists; 100 ppb (50 ppm)): 1.0 | Salt (BASIC TASTES) (panelists; 100 ppb (50 ppm)): 13.5 | Salt Burn (Chemical Feeling Factors) (panelists; 100 ppb (50 ppm)): 1.0 | Sweet (BASIC TASTES) (panelists; 100 ppb (50 ppm)): 3.5 | Total Aromatics (panelists; 100 ppb (50 ppm)): 6.3 | Umami (Chemical Feeling Factors) (panelists; 100 ppb (50 ppm)): 4.0 | Vegetable Complex (panelists; 100 ppb (50 ppm)): 1.5 | Vegetable Oil (panelists; 100 ppb (50 ppm)): 0.8
